Data set [1] addresses T1, Rho-associated protein kinase 2 (Homo sapiens, UniProt O75116). The data set is described as follows: Inhibition of ROCK2 assessed as myosin light chain phosphorylation by cell-based assay.
A short description of data set [2]: Metabolic stability in human liver microsomes. Format: ADME, Microsome. In general terms: Liver microsomes are vesicles of endoplasmic reticulum, rich in cytochrome P450 enzymes.
Data set [3] concerns the target T1, Rho-associated protein kinase 2. Kind of data set: Inhibition of ROCK2.
Data set [4] in a line: Inhibition of PKA.
In another data set the target is CYP3A4 (Homo sapiens, UniProt P08684). Kind of data set: Inhibition of CYP3A4 at 10 uM. Format: ADME.
Another data set deals with T2, CYP1A2 (Homo sapiens, UniProt P05177).
T2 sequence (P05177 whole entry): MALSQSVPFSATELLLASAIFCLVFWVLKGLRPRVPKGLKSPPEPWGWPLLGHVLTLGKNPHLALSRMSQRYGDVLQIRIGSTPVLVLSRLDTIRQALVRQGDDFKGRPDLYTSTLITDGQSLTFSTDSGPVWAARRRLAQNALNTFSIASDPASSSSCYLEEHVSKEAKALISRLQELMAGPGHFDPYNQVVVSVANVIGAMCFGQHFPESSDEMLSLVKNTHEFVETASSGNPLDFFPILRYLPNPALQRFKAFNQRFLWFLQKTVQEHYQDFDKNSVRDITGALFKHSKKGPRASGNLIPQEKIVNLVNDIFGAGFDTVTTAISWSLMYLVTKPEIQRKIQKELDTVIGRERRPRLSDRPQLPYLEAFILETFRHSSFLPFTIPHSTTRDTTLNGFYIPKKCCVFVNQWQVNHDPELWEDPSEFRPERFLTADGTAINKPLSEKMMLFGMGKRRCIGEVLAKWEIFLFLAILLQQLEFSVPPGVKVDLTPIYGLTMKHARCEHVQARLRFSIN
The data set is described as follows: Inhibition of CYP1A2 at 10 uM. Format: ADME.

In a further data set the target is CYP2C9 (Homo sapiens, UniProt P11712). The data set is described as follows: Inhibition of CYP2C9 at 10 uM. Format: ADME.
A further data set addresses CYP2D6 (Homo sapiens, UniProt P10635). The data set is described as follows: Inhibition of CYP2D6 at 10 uM. Format: ADME.
Data set [5] is described as follows: Volume of distribution at steady state in rat at 1 mg/kg, iv or 2 mg/kg, po. The format is ADME, organism-based. Particulars: in vivo, read-out: Vdss.
Data set [6] can be described thus: Selectivity for ROCK2 over PKA.
Data set [7] in a line: Clearance in rat at 1 mg/kg, iv or 2 mg/kg, po. The format is ADME, organism-based. Particulars: in vivo.
A short description of data set [8]: Cmax in rat at 2 mg/kg, po. Particulars: in vivo. Format: ADME, organism-based. On the set-up: dose 2 mg/kg, route oral.
The nature of data set [9]: Half life in rat at 1 mg/kg, iv or 2 mg/kg, po. Format: ADME, organism-based. Particulars: in vivo.
Data set [10] is described as follows: Oral bioavailability in rat at 2 mg/kg. Format: ADME, organism-based. Particulars: in vivo.
Data set [11] can be described thus: AUC in rat at 2 mg/kg, po. Particulars: plasma. The format is ADME, organism-based. Details: dose 2 mg/kg, route oral.
In data set [12] the target is Mitogen-activated protein kinase 10 (Homo sapiens, UniProt P53779). Kind of data set: Inhibition of JNK3.
The target in data set [13] is Mitogen-activated protein kinase 8 (Homo sapiens, UniProt P45983). The data set is described as follows: Inhibition of JNK1.
Data set [14] is described as follows: Inhibition of MRCK.
Data set [15] deals with RAC-alpha serine/threonine-protein kinase (Homo sapiens, UniProt P31749). Kind of data set: Inhibition of Akt1.
Data set [16] in a line: Inhibition of p38 kinase.

SMILES strings stand for the structures. A value given as a limit tells only on which side of the number the result lay.

Chain of CYP2C9 (P11712 whole entry): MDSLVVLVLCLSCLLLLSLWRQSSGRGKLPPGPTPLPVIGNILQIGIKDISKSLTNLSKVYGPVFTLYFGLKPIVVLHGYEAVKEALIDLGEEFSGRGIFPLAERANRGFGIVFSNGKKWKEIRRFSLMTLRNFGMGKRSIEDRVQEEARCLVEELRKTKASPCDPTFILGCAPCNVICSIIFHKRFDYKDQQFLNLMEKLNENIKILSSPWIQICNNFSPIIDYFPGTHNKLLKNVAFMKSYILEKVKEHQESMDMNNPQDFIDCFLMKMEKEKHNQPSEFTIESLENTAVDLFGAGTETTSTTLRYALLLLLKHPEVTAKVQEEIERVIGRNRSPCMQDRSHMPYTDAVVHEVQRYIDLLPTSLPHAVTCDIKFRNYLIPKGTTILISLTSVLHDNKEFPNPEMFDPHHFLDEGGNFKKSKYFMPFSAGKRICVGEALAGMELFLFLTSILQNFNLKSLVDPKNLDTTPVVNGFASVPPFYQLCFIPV
Chain of CYP3A4 (P08684 whole entry): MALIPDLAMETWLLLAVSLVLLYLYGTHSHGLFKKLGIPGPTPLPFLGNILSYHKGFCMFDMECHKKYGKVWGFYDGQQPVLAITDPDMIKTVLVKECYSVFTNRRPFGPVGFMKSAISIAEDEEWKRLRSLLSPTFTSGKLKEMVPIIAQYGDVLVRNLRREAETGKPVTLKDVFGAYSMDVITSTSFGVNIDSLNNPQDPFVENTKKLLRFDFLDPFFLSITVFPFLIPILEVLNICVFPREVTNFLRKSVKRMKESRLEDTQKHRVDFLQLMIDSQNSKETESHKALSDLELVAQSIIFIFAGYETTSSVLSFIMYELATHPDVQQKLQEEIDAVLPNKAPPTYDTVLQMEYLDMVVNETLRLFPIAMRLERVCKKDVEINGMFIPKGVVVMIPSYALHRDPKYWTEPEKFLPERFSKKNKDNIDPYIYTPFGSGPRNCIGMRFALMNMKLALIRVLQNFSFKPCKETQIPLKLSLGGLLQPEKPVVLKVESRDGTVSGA
Chain of CYP2D6 (P10635 whole entry): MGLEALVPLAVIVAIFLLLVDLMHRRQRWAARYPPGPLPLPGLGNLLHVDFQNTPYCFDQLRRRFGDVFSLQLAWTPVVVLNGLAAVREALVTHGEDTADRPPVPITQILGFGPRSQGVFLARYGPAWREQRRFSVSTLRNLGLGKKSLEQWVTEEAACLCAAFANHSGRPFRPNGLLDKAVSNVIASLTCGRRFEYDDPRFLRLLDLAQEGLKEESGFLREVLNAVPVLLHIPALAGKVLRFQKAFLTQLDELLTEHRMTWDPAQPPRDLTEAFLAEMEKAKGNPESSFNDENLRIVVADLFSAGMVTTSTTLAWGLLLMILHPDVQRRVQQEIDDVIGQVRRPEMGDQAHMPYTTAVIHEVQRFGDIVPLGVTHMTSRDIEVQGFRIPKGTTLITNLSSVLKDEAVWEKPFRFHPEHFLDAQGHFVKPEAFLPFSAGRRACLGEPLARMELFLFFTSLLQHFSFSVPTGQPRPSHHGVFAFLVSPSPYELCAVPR
T1 sequence (O75116 whole entry): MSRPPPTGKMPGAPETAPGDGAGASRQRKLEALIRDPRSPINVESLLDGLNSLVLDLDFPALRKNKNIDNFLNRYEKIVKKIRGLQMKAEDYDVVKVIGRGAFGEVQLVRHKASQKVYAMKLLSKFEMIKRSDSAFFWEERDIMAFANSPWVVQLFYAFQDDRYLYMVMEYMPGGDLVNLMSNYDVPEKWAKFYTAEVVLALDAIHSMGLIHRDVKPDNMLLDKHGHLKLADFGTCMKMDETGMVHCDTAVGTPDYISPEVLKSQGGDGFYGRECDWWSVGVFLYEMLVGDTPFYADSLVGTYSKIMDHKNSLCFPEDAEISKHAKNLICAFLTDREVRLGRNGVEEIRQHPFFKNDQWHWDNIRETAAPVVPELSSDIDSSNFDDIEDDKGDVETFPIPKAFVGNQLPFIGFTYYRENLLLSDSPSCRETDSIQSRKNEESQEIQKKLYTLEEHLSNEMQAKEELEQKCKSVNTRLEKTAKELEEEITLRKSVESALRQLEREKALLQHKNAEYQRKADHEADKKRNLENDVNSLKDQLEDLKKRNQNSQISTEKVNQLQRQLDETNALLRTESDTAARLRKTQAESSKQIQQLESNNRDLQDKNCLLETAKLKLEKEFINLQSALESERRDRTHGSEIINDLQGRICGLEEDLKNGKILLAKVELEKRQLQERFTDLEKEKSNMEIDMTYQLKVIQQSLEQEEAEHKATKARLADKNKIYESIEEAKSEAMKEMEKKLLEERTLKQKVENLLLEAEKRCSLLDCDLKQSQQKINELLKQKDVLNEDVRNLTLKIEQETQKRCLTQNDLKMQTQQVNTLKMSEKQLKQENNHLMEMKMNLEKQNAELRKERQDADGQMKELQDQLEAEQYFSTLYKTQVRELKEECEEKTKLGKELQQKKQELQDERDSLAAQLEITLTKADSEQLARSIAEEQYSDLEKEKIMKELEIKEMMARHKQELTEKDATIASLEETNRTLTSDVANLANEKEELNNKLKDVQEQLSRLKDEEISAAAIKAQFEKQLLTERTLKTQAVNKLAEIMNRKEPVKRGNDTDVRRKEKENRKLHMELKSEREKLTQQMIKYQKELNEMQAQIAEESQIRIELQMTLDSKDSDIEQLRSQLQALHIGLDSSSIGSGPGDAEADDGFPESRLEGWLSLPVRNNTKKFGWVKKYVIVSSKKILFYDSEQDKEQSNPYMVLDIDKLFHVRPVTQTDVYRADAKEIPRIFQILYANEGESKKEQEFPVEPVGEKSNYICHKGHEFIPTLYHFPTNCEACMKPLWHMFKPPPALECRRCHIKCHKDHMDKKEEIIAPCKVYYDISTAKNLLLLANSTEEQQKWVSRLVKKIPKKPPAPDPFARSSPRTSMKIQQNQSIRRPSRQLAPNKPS
Chain of Mitogen-activated protein kinase 8 (P45983 whole entry): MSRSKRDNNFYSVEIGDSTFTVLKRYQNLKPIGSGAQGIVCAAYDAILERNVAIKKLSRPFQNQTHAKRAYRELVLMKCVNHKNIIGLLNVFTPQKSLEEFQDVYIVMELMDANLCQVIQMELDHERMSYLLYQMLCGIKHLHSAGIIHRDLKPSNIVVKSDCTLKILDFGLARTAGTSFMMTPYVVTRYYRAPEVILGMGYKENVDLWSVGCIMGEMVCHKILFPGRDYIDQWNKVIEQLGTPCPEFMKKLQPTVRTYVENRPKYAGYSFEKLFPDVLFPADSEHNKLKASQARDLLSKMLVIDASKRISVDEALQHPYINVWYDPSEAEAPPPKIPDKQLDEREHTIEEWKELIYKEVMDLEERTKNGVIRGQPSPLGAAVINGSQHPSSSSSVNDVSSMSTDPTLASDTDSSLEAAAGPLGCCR
Chain of RAC-alpha serine/threonine-protein kinase (P31749 whole entry): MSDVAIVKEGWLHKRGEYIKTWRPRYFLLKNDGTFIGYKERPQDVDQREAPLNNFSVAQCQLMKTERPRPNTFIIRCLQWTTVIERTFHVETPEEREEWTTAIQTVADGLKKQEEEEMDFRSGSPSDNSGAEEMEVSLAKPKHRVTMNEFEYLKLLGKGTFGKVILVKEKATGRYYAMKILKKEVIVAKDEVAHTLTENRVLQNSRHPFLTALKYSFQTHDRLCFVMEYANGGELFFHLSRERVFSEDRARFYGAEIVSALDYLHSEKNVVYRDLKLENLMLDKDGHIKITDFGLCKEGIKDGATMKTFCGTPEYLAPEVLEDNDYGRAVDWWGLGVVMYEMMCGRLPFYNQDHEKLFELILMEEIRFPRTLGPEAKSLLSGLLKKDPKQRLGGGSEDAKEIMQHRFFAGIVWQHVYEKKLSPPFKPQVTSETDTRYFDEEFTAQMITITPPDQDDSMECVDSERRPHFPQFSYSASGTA
Chain of Mitogen-activated protein kinase 10 (P53779 whole entry): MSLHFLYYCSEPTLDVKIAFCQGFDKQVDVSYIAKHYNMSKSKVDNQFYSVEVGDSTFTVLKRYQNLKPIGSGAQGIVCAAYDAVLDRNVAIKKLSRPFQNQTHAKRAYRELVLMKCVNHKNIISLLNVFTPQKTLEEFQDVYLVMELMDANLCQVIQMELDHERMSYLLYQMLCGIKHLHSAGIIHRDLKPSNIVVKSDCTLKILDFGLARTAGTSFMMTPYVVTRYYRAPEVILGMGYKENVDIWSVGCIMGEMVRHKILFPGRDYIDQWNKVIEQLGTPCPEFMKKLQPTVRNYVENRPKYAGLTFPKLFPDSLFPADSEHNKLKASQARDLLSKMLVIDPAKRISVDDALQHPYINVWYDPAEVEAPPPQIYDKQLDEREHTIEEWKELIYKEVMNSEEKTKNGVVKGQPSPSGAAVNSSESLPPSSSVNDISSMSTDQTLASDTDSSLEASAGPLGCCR

Broadly, the IC50 is the concentration that gives 50% inhibition. The half-life is the time needed for the level to fall by half in the phase considered. A low value points to rapid decline. Regarding `COC(=O)c1ccc2c(c1)CC(c1nc3ccc(-c4ccnc(N)n4)cc3[nH]1)CO2` (stereo unspecified), the IC50 is 271 nM in [1], 6 nM in data set [3] and 10200 nM in [4]. Further, the half-life in data set [2] worked out at 18 min.

What is called inhibition is the relative decrease from the control value, in per cent. Turning to `c1ccc2c(c1)CC(c1nc3ccc(-c4ccncc4)cc3[nH]1)CO2` (stereo unspecified), the concentration for half-maximal inhibition (IC50) in data set [1] was < 6 nM; in data set [3], 2 nM; in [4], 317 nM. Moreover, the inhibition at 10 µM stood at 96% at CYP3A4, 90% against CYP1A2, 95% at CYP2C9 and 92% on CYP2D6. For the same compound, in data set [2], the half-life was determined as 29 min.

`Nc1nccc(-c2ccc3nc(C4COc5ccc(F)cc5C4)[nH]c3c2)n1` (stereo unspecified) showed a half-life in data set [2] of 45 min. Further, the figures for the IC50 in data set [3] and in data set [4] were 6 nM and 270 nM, respectively.

In the case of `Nc1nccc(-c2ccc3nc(C4COc5ccc(C(=O)NCc6ccccc6)cc5C4)[nH]c3c2)n1` (stereo unspecified), the IC50 in data set [1] is 23 nM; in data set [3], < 1 nM; in data set [4], 75 nM. This compound also displayed a half-life in [2] of 25 min.

`COC(=O)c1ccc2c(c1)CC(c1nc3ccc(-c4ccnc(N)n4)cc3o1)CO2` (stereo unspecified) yielded a half-maximal inhibitory concentration (IC50) in data set [3] of 24 nM.

`Nc1nccc(-c2ccc3nc(C4COc5ccccc5C4)[nH]c3c2)n1` (stereo unspecified): the IC50 in data set [1] came out at 66 nM; in data set [3] it was 8 nM; in data set [4], 198 nM. Besides, the inhibition at 10 µM was -3% against CYP3A4, 31% against CYP1A2, 13% on CYP2C9 and 15% against CYP2D6. In [2], this compound gave a half-life of 44 min.

For the compound `Cc1[nH]ncc1-c1ccc2nc(C3COc4ccccc4C3)[nH]c2c1` (stereo unspecified), in [2], the half-life came out at 30 min. For the same compound, the results for the IC50 in [3] and in data set [4] were 9 nM and 122 nM, respectively.

Regarding `Cc1ccc2c(c1)CC(c1nc3ccc(-c4ccnc(N)n4)cc3o1)CO2` (stereo unspecified), in data set [2], the half-life is 25 min. Besides, the IC50 was 78 nM in data set [3] and 6390 nM in data set [4].

Broadly, the Cmax is the highest concentration seen after dosing. A word on the bioavailability: it is the share of a dose that reaches the circulation, judged against a reference dose that is usually intravenous. Low values mean poor availability, high ones good availability. A word on the AUC: it is the area under the concentration-time curve, a measure of exposure. On to `COc1ccc2c(c1)CC(c1nc3ccc(-c4ccnc(N)n4)cc3[nH]1)CO2` (stereo unspecified), for which the IC50 in data set [1] stood at 99 nM; in data set [4], 602 nM. Moreover, the Vd in data set [5] was 0.89 L/kg. For the same compound, the fold change (FC) in data set [6] is 240. The figures for the half-life in [2] and in data set [9] were 28 min and 138 min, respectively. The same compound yielded a clearance in data set [7] of 17 mL/min/kg. Moreover, the peak level in data set [8] (Cmax) was 900 nM. The same compound returned a bioavailability in [10] of 35%. In data set [11], this compound registered an AUC of 1.9 µM·h.

Regarding `COc1ccc2c(c1)CC(c1nc3ccc(-c4ccnc(N)n4)cc3o1)CO2` (stereo unspecified), the IC50 in [1] is 46 nM; in data set [3], 2 nM. In data set [5], the Vd was 1.6 L/kg. The same compound displayed a fold change (FC) in data set [6] of 950. In addition, the half-life in data set [2] was 34 min; in data set [9] it was 156 min. Moreover, the clearance in data set [7] is 8.4 mL/min/kg. The compound further registered a Cmax in data set [8] of 970 nM. Besides, the bioavailability in [10] was found to be 63%. The AUC in [11] is 6.6 µM·h.

Regarding `c1ccc2c(c1)CC(c1nc3ccc(-c4cn[nH]c4)cc3[nH]1)CO2` (stereo unspecified), the IC50 in [1] turned out to be 86 nM; in data set [3], 27 nM; in data set [4] it was 168 nM. Moreover, the inhibition at 10 µM against CYP3A4 came to 47%; at CYP1A2, 51%; at CYP2C9 it was 84%; against CYP2D6 it was 84%. In addition, the half-life in data set [2] was found to be 20 min.

For `Cc1[nH]ncc1-c1ccc2nc(C3COc4ccccc4C3)oc2c1` (stereo unspecified), the figures for the IC50 in data set [1], in data set [3] and in data set [4] were 533 nM, 9 nM and 778 nM, respectively. Moreover, in data set [2], the half-life was determined as 70 min.

For the compound `Nc1nccc(-c2ccc3nc(C4COc5ccc(F)cc5C4)oc3c2)n1` (stereo unspecified), the concentration for half-maximal inhibition (IC50) in data set [1] is 28 nM; in data set [3], 15 nM; in data set [4], 2910 nM. Also, in data set [2], the half-life was found to be 91 min.

Turning to `Nc1nccc(-c2ccc3nc(C4COc5ccc(C(=O)NC6CC6)cc5C4)[nH]c3c2)n1` (stereo unspecified), the IC50 in data set [1] is 212 nM; in [3], < 1 nM; in [4], 669 nM. Moreover, the half-life in data set [2] worked out at 79 min.

As to `Nc1nccc(-c2ccc3nc(C4COc5ccccc5C4)oc3c2)n1` (stereo unspecified), the inhibition at 10 µM on CYP3A4 is -6%; on CYP1A2, 0%; against CYP2C9 it was -8%; against CYP2D6, -4%. Besides, the half-life in data set [2] stood at 57 min. For the same compound, the figures for the IC50 in [3] and in [4] were 27 nM and 1340 nM, respectively.

In the case of `c1ccc2c(c1)CC(c1nc3ccc(-c4cn[nH]c4)cc3o1)CO2` (stereo unspecified), the values for the IC50 in data set [1], in data set [3] and in [4] were 330 nM, 21 nM and 1210 nM, respectively. The inhibition at 10 µM against CYP3A4 is 15%; on CYP1A2 it was 27%; against CYP2C9 it was 80%; against CYP2D6, 41%. The compound also showed a half-life in data set [2] of 40 min.

Take `COc1ccc2c(c1)CC(c1nc3c(F)cc(-c4ccnc(N)n4)cc3[nH]1)CO2` (stereo unspecified): the IC50 was 16800 nM in data set [12]; < 6 nM in data set [1]; 14100 nM in data set [13]; < 1 nM in data set [3]; 397 nM in data set [4]; 1100 nM in [14]. Further, the IC50 is 5000 nM in data set [15] and > 20000 nM in data set [16]. Further, the Vd in data set [5] stood at 0.63 L/kg. The same compound registered a clearance in data set [7] of 12 mL/min/kg. Further, the peak level in data set [8] (Cmax) was 740 nM. In addition, the half-life in data set [9] was 84 min. This compound came in with a bioavailability in data set [10] of 29%. Also, the AUC in data set [11] amounted to 2.2 µM·h.

As for `CC(C)Oc1ccc2c(c1)CC(c1nc3ccc(-c4ccnc(N)n4)cc3o1)CO2` (stereo unspecified), the midpoint of inhibition in [3], the IC50, lay at 294 nM.

`CC(C)Oc1ccc2c(c1)CC(c1nc3ccc(-c4ccnc(N)n4)cc3[nH]1)CO2` (stereo unspecified): the IC50 in [3] amounted to 296 nM; in data set [4] it was 6380 nM.

These data come from ChEMBL document CHEMBL1152196, “Benzimidazole- and benzoxazole-based inhibitors of Rho kinase” (Bioorg Med Chem Lett, 2008).
